Like-named read-outs stand apart in the source and are kept apart here.
Molecular target: T. gondii adenosine kinase (Toxoplasma gondii, UniProt Q9TVW2)
Assay: biochemical
Settings: for inhibition at 1000 µM: read-out: Inhibition of T. gondii adenosine kinase; for Decrease in binding to T. gondii adenosine kinase: relative to reference compound adenosine; for Effect on binding to T. gondii adenosine kinase, in words: relative to adenosine
Method: Preparation of cytosol extracts. For the structure activity relationships studies, approximately 5×10^8 T. gondii were suspended in 1.2 ml of 50 mM N-2-hydroxyethylpiperazine-N'-2-ethanesulfonic acid (HEPES)-Cl (pH 8.0)/1 mM dithiothreitol and homogenized for 30 seconds at setting 10, using a Brinnmann Instruments Polytron homogenizer fitted with a PTA 7K1 probe. The homogenate was then centrifuged at approximately 116,000 g for 1 hour at 5° and the supernatant (cytosol extract) collected and used as the enzyme source. Fresh cytosol extracts were prepared for each experiment.
Adenosine kinase assay. T. gondii adenosine kinase activity was measured by following the formation of [^14 C]AMP from [^14 C]adenosine and ATP. […] Therefore, the standard reaction mixture contained 50 mM HEPES-Cl (pH 8.0), 1 mM dithiothreitol, 5 μM [8-^14 C]adenosine (45 Ci/mol), 0.5 mM ATP, 0.5 mM MgCl2, 25 μM (+)-EHNA or 100 μM (±)-EHNA,10-30 μl of cytosol extract (approximately 3-10 μg of protein), and either 0, 0.1, 0.25, 0.5 or 1.0 mM of the compound to be tested, in a final volume of 150 μl.
Reactions were started by the addition of [8-^14 C]adenosine, incubated at 37° for 10 minutes and terminated by placing the reaction tubes in a boiling water bath for 2 minutes. Precipitated proteins were removed by centrifugation in a microcentrifuge (approximately 13,000 g) for 5 minutes, and a 15 μl aliquot of the resulting supernatant was mixed with 5 μl of a solution containing 10 mM each of AMP and adenosine. This mixture was then spotted on silica gel thin layer chromatography plates which were developed with a mixture of chloroform/methanol/acetic acid (16:3:1). […] The substrate and product spots (which accounted for all of the radioactivity on the plates) were identified by UV quenching, cut out, and the radioactivity quantitated by liquid scintillation counting in 20 ml of Scintilene, using a Packard 460 scintillation counter. […] Enzyme velocity was calculated by multiplying the fraction of AMP formed from adenosine times the amount of adenosine in the assay, and dividing by the incubation time.
Determination and significance of AppKi values. AppKi values were used to determine the relative degree of binding of compounds to adenosine kinase as compared to adenosine. AppKi values were estimated from Dixon plots of the data (1/.nu. versus [I]), using a computer program with least squares fitting according to the general principles of Cleland (Cleland, W W, The statistical analysis of enzyme kinetic data. Adv. Enzymol. 29:1-32, 1967). The program was written by Dr. Sungman Cha (Brown University, Providence, R.I.) and modified to fit IBM BASIC by Dr. Fardos N. M. Naguib. […] It should be noted, however, that the type of inhibition (i.e., competitive, noncompetitive, or uncompetitive) produced by the compounds was not determined, nor were the compounds evaluated as substrates for T. gondii adenosine kinase.

[1] = AppKi for inhibition of T. gondii adenosine kinase, 5 μM adenosine, ± range, at least two estimations

Chain of T. gondii adenosine kinase (Q9TVW2 whole entry): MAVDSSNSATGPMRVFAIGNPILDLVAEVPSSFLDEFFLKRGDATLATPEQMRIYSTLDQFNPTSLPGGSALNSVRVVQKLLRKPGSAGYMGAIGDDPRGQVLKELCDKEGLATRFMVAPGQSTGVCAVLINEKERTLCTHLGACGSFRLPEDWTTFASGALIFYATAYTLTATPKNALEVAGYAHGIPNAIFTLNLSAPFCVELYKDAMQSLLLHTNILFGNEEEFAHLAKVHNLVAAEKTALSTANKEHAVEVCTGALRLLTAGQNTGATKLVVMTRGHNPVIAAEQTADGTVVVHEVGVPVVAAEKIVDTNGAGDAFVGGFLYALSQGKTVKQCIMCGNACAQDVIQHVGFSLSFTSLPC

NNc1c(C(N)=O)c2c(N)ncnc2n1[C@@H]1O[C@H](CO)[C@@H](O)[C@H]1O [Compound 74, 8-Hydrazino-7-carboxamido-7-deazaadenosine (6-Hydrazinosangivamycin)]
Ki: 160 ± 9 µM

OC[C@H]1O[C@@H](n2ncc3cncnc32)[C@H](O)[C@@H]1O [Compound 75, 8-Aza-7-deazapurine riboside]
Ki: 5100 µM

CCSc1ncnc2c1cnn2[C@@H]1O[C@H](CO)[C@@H](O)[C@H]1O [Compound 76, 8-Aza-6-ethylmercapto-7-deazapurine riboside]
Ki: 210 ± 100 µM

O=c1[nH]cnc2c1cnn2[C@@H]1O[C@H](CO)[C@@H](O)[C@H]1O [Compound 77, 8-Aza-6-hydroxy-7-deazapurine riboside (allopurinol)]
Ki: 15000 µM

OC[C@H]1O[C@@H](n2ncc3c(=S)[nH]cnc32)[C@H](O)[C@@H]1O [Compound 78, 8-Aza-6-mercapto-7-deazapurine riboside]
inhibition at 1000 µM: < 10%

CSc1ncnc2c1cnn2[C@@H]1O[C@H](CO)[C@@H](O)[C@H]1O [Compound 79, 8-Aza-6-methylmercapto-7-deazapurine riboside]
Ki: 140 ± 30 µM

NC(=O)c1cn([C@@H]2O[C@H](CO)[C@@H](O)[C@H]2O)c2nc[n+]([O-])c(N)c12 [Compound 80, 7-Carboxamido-7-deazaadenosine-N^1-oxide]
Ki: 780 ± 70 µM

O=c1[nH]cnc2c([C@@H]3O[C@H](CO)[C@@H](O)[C@H]3O)n[nH]c12 [Compound 82, 8-Aza-9-deazainosine (formycin B)]
Ki: 3100 µM

CSc1ncnc2c1nnn2[C@@H]1O[C@H](CO)[C@@H](O)[C@H]1O [Compound 83, 8-Aza-6-methylmercaptopurine riboside]
Ki: 130 ± 40 µM

OC[C@H]1O[C@@H](n2cnc3ccccc32)[C@H](O)[C@@H]1O [Compound 84, Benzimidazole riboside ("1,3-dideazapurine riboside")]
inhibition at 1000 µM: < 10%

OC[C@H]1O[C@@H](n2cnc3c2N=CNC[C@H]3O)[C@H](O)[C@@H]1O [Compound 85, Coformycin]
Ki: 2000 µM

Nc1ncnc2c1ncn2[C@@H]1O[C@H](CO)[C@@H](O)[C@@H]1O [Compound 86, Adenine arabinoside (ara-A)]
Ki: 3000 µM | Decrease in binding to T. gondii adenosine kinase: 430 fold

Nc1ncnc2c1ncn2[C@H]1C[C@H](O)[C@@H](CO)O1 [Compound 87, 2'-Deoxyadenosine]
Ki: 4200 µM | Decrease in binding to T. gondii adenosine kinase: 600 fold

CO[C@@H]1[C@H](O)[C@@H](CO)O[C@H]1n1cnc2c(N)ncnc21 [Compound 88, 2'-O-Methyladenosine]
inhibition at 1000 µM: < 10% | Effect on binding to T. gondii adenosine kinase, in words: abolishes

Cc1ccc(S(=O)(=O)O[C@@H]2[C@H](O)[C@@H](CO)O[C@H]2n2cnc3c(N)ncnc32)cc1 [Compound 89, 2'Tosyladenosine]
inhibition at 1000 µM: < 10%

Nc1ncnc2c1ncn2[C@@H]1O[C@H](CO)C[C@H]1O [Compound 90, 3'-Deoxyadenosine (Cordycepin)]
Ki: 1100 µM

CO[C@H]1[C@@H](O)[C@H](n2cnc3c(N)ncnc32)O[C@@H]1CO [Compound 91, 3'-O-Methyladenosine]
inhibition at 1000 µM: < 10% | Effect on binding to T. gondii adenosine kinase, in words: abolishes

Nc1ncnc2c1ncn2[C@@H]1O[C@H](CO)[C@H](O)[C@H]1O [Compound 92, Adenine xyloside]
Ki: 1400 µM | Decrease in binding to T. gondii adenosine kinase: 200 fold

C[C@H]1O[C@@H](n2cnc3c(N)ncnc32)[C@H](O)[C@@H]1O [Compound 93, 5'-Deoxyadenosine]
Ki: 40 ± 3 µM | Decrease in binding to T. gondii adenosine kinase: 5.7 fold

Nc1ncnc2c1ncn2[C@@H]1O[C@H](CCl)[C@@H](O)[C@H]1O [Compound 95, 5'-Chloro-5'-deoxyadenosine]
Ki: 210 ± 10 µM

Nc1ncnc2c1ncn2[C@@H]1O[C@H](CI)[C@@H](O)[C@H]1O [Compound 96, 5'-Iodo-5'-deoxyadenosine]
Ki [1]: 230 ± 10 µM

Nc1ncnc2c1ncn2[C@@H]1O[C@H](COS(=O)(=O)O)[C@@H](O)[C@H]1O [Compound 97, 5'-Sufonyl adenosine (adenosine 5'-monosulfate)]
Ki [1]: 210 ± 60 µM

CSC[C@H]1O[C@@H](n2cnc3c(N)ncnc32)[C@H](O)[C@@H]1O [Compound 98, 5'-Methylthio-5'-deoxyadenosine]
Ki: 530 ± 230 µM

Nc1ncnc2c1ncn2[C@@H]1O[C@H](C(=O)O)[C@@H](O)[C@H]1O [Compound 99, adenosine 5'-Carboxylic acid (5'-Carboxyladenosine)]
Ki: 1100 µM

Nc1ncnc2c1ncn2[C@@H]1O[C@H](COC(=O)CCC(=O)O)[C@@H](O)[C@H]1O [Compound 100, 5'-Succinyladenosine (adenosine 5'-succinate)]
Ki: 920 ± 600 µM

CC(C)CC[C@H]1O[C@@H](n2cnc3c(N)ncnc32)[C@H](O)[C@@H]1O [Compound 101, 5'-Isobutyl-5'-deoxyadenosine]
Ki: 410 ± 90 µM

CNC(=O)[C@H]1O[C@@H](n2cnc3c(N)ncnc32)[C@H](O)[C@@H]1O [Compound 102, 5'-N-(Methyl)carboxamidoadenosine]
inhibition at 1000 µM: < 10%

CCNC(=O)[C@H]1O[C@@H](n2cnc3c(N)ncnc32)[C@H](O)[C@@H]1O [Compound 103, 5'-N-(Ethyl)carboxamidoadenosine]
inhibition at 1000 µM: < 10%

Nc1ncnc2c1ncn2[C@@H]1O[C@H](C(=O)NC2CC2)[C@@H](O)[C@H]1O [Compound 104, 5'-N-(Cyclopropyl)carboxamidoadenosine]
Ki [1]: 1100 µM

Nc1ncnc2c1ncn2[C@@H]1O[C@H](COC(=O)c2ccc(S(=O)(=O)F)cc2)[C@@H](O)[C@H]1O [Compound 105, 5'-(p-Fluorosulfonylbenzoyl)adenosine]
Ki [1]: 340 ± 40 µM

Nc1ncnc2c1ncn2[C@H]1CC[C@@H](CO)O1 [Compound 106, 2',3'-Dideoxyadenosine]
Ki: 5500 µM

Nc1ncnc2c1ncn2C1O[C@H](CO)[C@H](O)[C@@H]1O (some centres unmarked) [Compound 107, Adenine lyxoside]
Ki (read-out: AppKi for inhibition of T. gondii adenosine kinase, 5 μM adenosine, ± range, at least two estimations): 1300 µM | Decrease in binding to T. gondii adenosine kinase: 190 fold

COc1ccc(C2OC3C(CO)OC(n4cnc5c(N)ncnc54)C3O2)cc1 (centres unmarked) [Compound 108, 2',3'-O-p-Anisylidene adenosine]
Ki: 1400 µM

CC(=O)O[C@@H]1[C@H](OC(C)=O)[C@@H](CO)O[C@H]1n1cnc2c(N)ncnc21 [Compound 109, 2',3'-Di-O-acetyladenosine]
inhibition at 1000 µM: < 10%

CC(=O)OC[C@H]1O[C@@H](n2cnc3c(N)ncnc32)[C@H](O)[C@@H]1OC(C)=O [Compound 110, 3',5'-Di-O-acetyladenosine]
inhibition at 1000 µM: < 10%

Nc1ncnc2c1ncn2[C@@H]1O[C@](F)(COS(N)(=O)=O)[C@@H](O)[C@H]1O [Compound 111, 4'-Flouro-5'-O-sulfamoyladenosine (nucleocidin)]
Ki [1]: 850 ± 220 µM

Nc1ncnc2c1ncn2[C@@H]1C=C(CO)[C@@H](O)[C@H]1O [Compound 114, Neplanocin A]
Ki: 37 ± 10 µM | Decrease in binding to T. gondii adenosine kinase: 5.3 fold

Nc1ncnc2nc[nH]c12 [Compound 115, Adenine]
Ki: 6500 µM | Decrease in binding to T. gondii adenosine kinase: 930 fold

Cn1cnc2c(ncn2[C@H]2C[C@H](O)[C@@H](CO)O2)c1=N [Compound 116, 1-Methyl-2'-deoxyadenosine]
Ki: 8000 µM

CNc1ncnc2c1ncn2[C@H]1C[C@H](O)[C@@H](CO)O1 [Compound 117, N^6 -Methyl-2'-deoxyadenosine]
inhibition at 1000 µM: < 10%

O=C(Nc1ncnc2c1ncn2[C@H]1C[C@H](O)[C@@H](CO)O1)c1ccccc1 [Compound 118, N^6 -Benzoyl-2'-deoxyadenosine]
Ki: 590 ± 20 µM

CN(C)c1ncnc2c1ncn2[C@@H]1O[C@H](CO)[C@@H](N)[C@H]1O [Compound 119, N^6 -Dimethyl-3'-amino-3'-deoxyadenosine]
Ki [1]: 540 ± 80 µM

NC(=O)c1cn([C@@H]2O[C@H](CO)C[C@H]2O)c2ncnc(N)c12 [Compound 120, 7-Deaza-7-carboxamido-3'-deoxyadenosine (3'-Deoxysangivamycin)]
Ki [1]: 110 ± 20 µM | Reduction of binding to T. gondii adenosine kinase (relative to sangivamycin): 2 fold

Source: patent US5773424A, “Treatment of toxoplasmosis” (priority 1994, dated 1998)
